Data reported in patent US10125138B2, “Triazolotriazinone derivatives having activity a s herbicides” (Syngenta Participations AG, priority 2015, dated 2018).

Columns and labels:
Assay type in all cases: in vivo
Conditions in all cases: 1000 g/h, evaluated after 13 days, five point scale
[1] = test system: Setaria faberi (SETFA); assay: Post-emergence glasshouse herbicide test, Setaria faberi
[2] = test system: Ipomoea hederacea (IPOHE); assay: Post-emergence glasshouse herbicide test, Ipomoea hederacea
[3] = test system: Amaranthus retoflexus (AMARE); assay: Pre-emergence glasshouse herbicide test, Amaranthus retoflexus
[4] = test system: Lolium perenne (LOLPE); assay: Pre-emergence glasshouse herbicide test, Lolium perenne
[5] = test system: Echinochloa crus-galli (ECHCG); assay: Pre-emergence glasshouse herbicide test, Echinochloa crus-galli
[6] = test system: Lolium perenne (LOLPE); assay: Post-emergence glasshouse herbicide test, Lolium perenne
[7] = test system: Solanum nigrum (SOLNI); assay: Post-emergence glasshouse herbicide test, Solanum nigrum
Summary of the method: (§1)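 Pots sown with the test species are kept at 24/16 °C day/night, 14 h light and 65% humidity. An aqueous spray of the compound (1000 g/h; acetone/water 50:50, 0.5% Tween 20) is applied after 1 day or 8 days. Damage is scored 13 days later.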

[8] = test system: Echinochloa crus-galli (ECHCG); assay: Post-emergence glasshouse herbicide test, Echinochloa crus-galli
[9] = test system: Solanum nigrum (SOLNI); assay: Pre-emergence glasshouse herbicide test, Solanum nigrum
Summary of the method: as §1

[10] = test system: Ipomoea hederacea (IPOHE); assay: Pre-emergence glasshouse herbicide test, Ipomoea hederacea
[11] = test system: Setaria faberi (SETFA); assay: Pre-emergence glasshouse herbicide test, Setaria faberi
[12] = test system: Amaranthus retoflexus (AMARE); assay: Post-emergence glasshouse herbicide test, Amaranthus retoflexus

SMILES	percentage damage caused to the plant, POST Application SETFA [1]	percentage damage caused to the plant, POST Application IPOHE [2]	percentage damage caused to the plant, PRE Application AMARE [3]	percentage damage caused to the plant, PRE Application LOLPE [4]	percentage damage caused to the plant, PRE Application ECHCG [5]	percentage damage caused to the plant, POST Application LOLPE [6]	percentage damage caused to the plant, POST Application SOLNI [7]	percentage damage caused to the plant, POST Application ECHCG [8]	percentage damage caused to the plant, PRE Application SOLNI [9]	percentage damage caused to the plant, PRE Application IPOHE [10]	percentage damage caused to the plant, PRE Application SETFA [11]	percentage damage caused to the plant, POST Application AMARE [12]
CCCn1nnnc1NC(=O)c1nn2cnn(-c3ccc(F)cc3)c2nc1=O [Compound 1.038]	5 (5=80-100%)	5 (5=80-100%)	5 (5=80-100%)	4 (4=60-79%)	5 (5=80-100%)	5 (5=80-100%)	5 (5=80-100%)	5 (5=80-100%)	5 (5=80-100%)	5 (5=80-100%)	5 (5=80-100%)	5 (5=80-100%)
CCCCn1nnnc1NC(=O)c1nn2cnn(-c3ccc(F)cc3)c2nc1=O [Compound 1.039]	5 (5=80-100%)	5 (5=80-100%)	5 (5=80-100%)	5 (5=80-100%)	5 (5=80-100%)	5 (5=80-100%)	5 (5=80-100%)	5 (5=80-100%)	5 (5=80-100%)	4 (4=60-79%)	5 (5=80-100%)	5 (5=80-100%)
CCCCn1nnnc1NC(=O)c1nn2cnn(-c3ccc(OC)cc3)c2nc1=O [Compound 1.040]	4 (4=60-79%)	5 (5=80-100%)	3 (3=40-59%)	5 (5=80-100%)	5 (5=80-100%)	5 (5=80-100%)	5 (5=80-100%)	3 (3=40-59%)	5 (5=80-100%)	5 (5=80-100%)	5 (5=80-100%)	4 (4=60-79%)
CCn1nnnc1NC(=O)c1nn2cnn(-c3ccc(C(F)(F)F)cc3)c2nc1=O [Compound 1.042]	4 (4=60-79%)	4 (4=60-79%)	5 (5=80-100%)	4 (4=60-79%)	5 (5=80-100%)	3 (3=40-59%)	5 (5=80-100%)	3 (3=40-59%)	5 (5=80-100%)	4 (4=60-79%)	5 (5=80-100%)	4 (4=60-79%)
